{"source": "the kinase profiling compilation of Christmann-Franck et al. (2016)", "assay_in_all_cases": "KINOMEscan competition binding", "settings_in_all_cases": "compound 10.0 µM", "key": {"[1]": {"system": "ABL1 (human), P00519 [Y253F]"}, "ANKK1 (human)": {"biological_target": "ANKK1 (human) (UniProt Q8NFD2)"}, "AURKA (human)": {"biological_target": "AURKA (human) (UniProt O14965)"}, "CAMKK1 (human)": {"biological_target": "CAMKK1 (human) (UniProt Q8N5S9)"}, "CDC42BPB (human)": {"biological_target": "CDC42BPB (human) (UniProt Q9Y5S2)"}, "CHEK1 (human)": {"biological_target": "CHEK1 (human) (UniProt O14757)"}, "CSNK1E (human)": {"biological_target": "CSNK1E (human) (UniProt P49674)", "sequence (P49674 whole entry, looked up)": "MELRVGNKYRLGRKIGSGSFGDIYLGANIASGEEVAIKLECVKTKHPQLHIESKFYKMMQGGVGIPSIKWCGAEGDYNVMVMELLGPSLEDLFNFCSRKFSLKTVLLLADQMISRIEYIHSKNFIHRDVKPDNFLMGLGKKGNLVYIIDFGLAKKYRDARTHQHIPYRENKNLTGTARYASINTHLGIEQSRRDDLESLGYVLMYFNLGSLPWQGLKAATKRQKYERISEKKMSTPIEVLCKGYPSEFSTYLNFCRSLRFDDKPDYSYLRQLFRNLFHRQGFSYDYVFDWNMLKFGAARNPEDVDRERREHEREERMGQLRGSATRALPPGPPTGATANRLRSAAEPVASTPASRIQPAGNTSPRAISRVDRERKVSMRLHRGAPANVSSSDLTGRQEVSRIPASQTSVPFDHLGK"}, "[2]": {"system": "EGFR (human), P00533 [747-751 del / S ins]"}, "EPHA7 (human)": {"biological_target": "EPHA7 (human) (UniProt Q15375)"}, "IKBKB (human)": {"biological_target": "IKBKB (human) (UniProt O14920)"}, "IKBKE (human)": {"biological_target": "IKBKE (human) (UniProt Q14164)"}, "IRAK1 (human)": {"biological_target": "IRAK1 (human) (UniProt P51617)"}, "ITK (human)": {"biological_target": "ITK (human) (UniProt Q08881)"}, "KDR (human)": {"biological_target": "KDR (human) (UniProt P35968)"}, "MAP2K7 (human)": {"biological_target": "MAP2K7 (human) (UniProt O14733)"}, "MAP3K11 (human)": {"biological_target": "MAP3K11 (human) (UniProt Q16584)"}, "MAP3K3 (human)": {"biological_target": "MAP3K3 (human) (UniProt Q99759)"}, "MAP3K7 (human)": {"biological_target": "MAP3K7 (human) (UniProt O43318)", "sequence (O43318 whole entry, looked up)": "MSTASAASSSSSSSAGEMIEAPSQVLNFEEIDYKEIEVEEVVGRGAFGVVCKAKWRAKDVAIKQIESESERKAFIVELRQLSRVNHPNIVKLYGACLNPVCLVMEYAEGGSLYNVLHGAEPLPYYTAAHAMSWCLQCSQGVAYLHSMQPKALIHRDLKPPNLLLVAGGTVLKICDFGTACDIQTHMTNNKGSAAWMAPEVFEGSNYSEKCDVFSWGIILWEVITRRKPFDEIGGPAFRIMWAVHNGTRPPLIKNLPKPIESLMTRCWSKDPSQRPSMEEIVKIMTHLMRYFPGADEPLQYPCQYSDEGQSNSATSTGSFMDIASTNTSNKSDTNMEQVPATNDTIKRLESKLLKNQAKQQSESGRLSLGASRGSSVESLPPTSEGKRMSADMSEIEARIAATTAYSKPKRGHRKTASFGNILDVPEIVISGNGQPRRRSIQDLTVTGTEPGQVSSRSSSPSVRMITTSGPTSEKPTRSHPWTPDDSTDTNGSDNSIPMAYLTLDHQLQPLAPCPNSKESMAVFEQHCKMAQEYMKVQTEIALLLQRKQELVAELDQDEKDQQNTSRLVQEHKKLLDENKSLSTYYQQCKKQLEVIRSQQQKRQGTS"}, "MAPK1 (human)": {"biological_target": "MAPK1 (human) (UniProt P28482)"}, "MAPK13 (human)": {"biological_target": "MAPK13 (human) (UniProt O15264)"}, "MAPK6 (human)": {"biological_target": "MAPK6 (human) (UniProt Q16659)"}, "MAPKAPK2 (human)": {"biological_target": "MAPKAPK2 (human) (UniProt P49137)"}, "MKNK1 (human)": {"biological_target": "MKNK1 (human) (UniProt Q9BUB5)"}, "MST1R (human)": {"biological_target": "MST1R (human) (UniProt Q04912)"}, "MTOR (human)": {"biological_target": "MTOR (human) (UniProt P42345)"}, "NEK4 (human)": {"biological_target": "NEK4 (human) (UniProt P51957)"}, "PAK1 (human)": {"biological_target": "PAK1 (human) (UniProt Q13153)"}, "PDGFRB (human)": {"biological_target": "PDGFRB (human) (UniProt P09619)", "sequence (P09619 whole entry, looked up)": "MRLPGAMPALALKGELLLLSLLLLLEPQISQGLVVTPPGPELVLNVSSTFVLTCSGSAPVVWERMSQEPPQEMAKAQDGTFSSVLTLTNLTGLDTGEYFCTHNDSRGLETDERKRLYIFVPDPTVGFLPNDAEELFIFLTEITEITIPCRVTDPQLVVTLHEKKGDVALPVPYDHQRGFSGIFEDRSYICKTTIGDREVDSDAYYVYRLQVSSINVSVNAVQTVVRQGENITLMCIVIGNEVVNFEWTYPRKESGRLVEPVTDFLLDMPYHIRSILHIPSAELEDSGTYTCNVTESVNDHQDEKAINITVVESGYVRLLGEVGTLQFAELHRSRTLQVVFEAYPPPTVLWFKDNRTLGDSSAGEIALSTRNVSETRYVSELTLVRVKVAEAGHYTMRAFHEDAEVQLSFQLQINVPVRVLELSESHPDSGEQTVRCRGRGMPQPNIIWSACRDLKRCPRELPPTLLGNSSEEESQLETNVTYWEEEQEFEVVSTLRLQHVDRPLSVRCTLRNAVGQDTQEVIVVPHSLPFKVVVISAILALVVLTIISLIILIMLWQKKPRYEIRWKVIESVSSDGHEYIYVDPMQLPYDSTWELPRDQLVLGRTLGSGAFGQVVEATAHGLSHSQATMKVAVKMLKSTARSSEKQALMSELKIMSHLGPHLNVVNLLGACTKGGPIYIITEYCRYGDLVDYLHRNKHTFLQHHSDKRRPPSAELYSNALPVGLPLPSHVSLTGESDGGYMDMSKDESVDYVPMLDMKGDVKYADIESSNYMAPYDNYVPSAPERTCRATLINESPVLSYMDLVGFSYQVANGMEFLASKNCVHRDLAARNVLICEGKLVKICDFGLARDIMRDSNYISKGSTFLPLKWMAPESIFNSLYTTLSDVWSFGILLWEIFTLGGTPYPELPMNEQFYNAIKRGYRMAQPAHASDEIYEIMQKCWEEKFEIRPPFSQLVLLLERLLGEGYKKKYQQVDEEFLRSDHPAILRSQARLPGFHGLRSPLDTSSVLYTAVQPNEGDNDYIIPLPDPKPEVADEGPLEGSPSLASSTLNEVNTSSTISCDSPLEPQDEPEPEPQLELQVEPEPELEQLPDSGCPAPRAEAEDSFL"}, "PIM2 (human)": {"biological_target": "PIM2 (human) (UniProt Q9P1W9)"}, "PLK4 (human)": {"biological_target": "PLK4 (human) (UniProt O00444)", "sequence (O00444 whole entry, looked up)": "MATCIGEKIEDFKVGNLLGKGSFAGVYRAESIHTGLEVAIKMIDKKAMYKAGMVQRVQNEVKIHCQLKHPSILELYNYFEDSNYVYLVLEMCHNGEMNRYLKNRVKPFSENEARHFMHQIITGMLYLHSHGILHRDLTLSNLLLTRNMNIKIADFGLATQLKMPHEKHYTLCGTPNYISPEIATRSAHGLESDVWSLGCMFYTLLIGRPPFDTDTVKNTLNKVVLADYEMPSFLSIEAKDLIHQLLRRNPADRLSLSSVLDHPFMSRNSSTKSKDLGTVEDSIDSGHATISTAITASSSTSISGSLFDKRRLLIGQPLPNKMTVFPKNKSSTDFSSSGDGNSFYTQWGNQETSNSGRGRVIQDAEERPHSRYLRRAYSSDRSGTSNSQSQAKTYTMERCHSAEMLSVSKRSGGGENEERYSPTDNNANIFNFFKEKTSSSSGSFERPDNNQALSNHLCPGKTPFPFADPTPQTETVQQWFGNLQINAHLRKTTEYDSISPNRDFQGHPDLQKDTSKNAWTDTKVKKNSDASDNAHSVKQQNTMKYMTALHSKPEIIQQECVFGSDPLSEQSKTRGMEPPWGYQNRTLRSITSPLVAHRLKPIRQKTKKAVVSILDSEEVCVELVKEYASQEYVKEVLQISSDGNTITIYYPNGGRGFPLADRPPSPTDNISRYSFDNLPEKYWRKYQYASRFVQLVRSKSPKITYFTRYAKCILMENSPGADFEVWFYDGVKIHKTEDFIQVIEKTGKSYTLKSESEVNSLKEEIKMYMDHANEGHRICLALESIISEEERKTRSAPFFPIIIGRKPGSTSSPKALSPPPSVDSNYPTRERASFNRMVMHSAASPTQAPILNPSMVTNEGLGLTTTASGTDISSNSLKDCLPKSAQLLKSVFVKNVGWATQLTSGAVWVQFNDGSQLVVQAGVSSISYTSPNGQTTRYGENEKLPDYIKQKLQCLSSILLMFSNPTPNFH"}, "PRKCD (human)": {"biological_target": "PRKCD (human) (UniProt Q05655)"}, "PRKCH (human)": {"biological_target": "PRKCH (human) (UniProt P24723)"}, "PRKCI (human)": {"biological_target": "PRKCI (human) (UniProt P41743)"}, "PRKCQ (human)": {"biological_target": "PRKCQ (human) (UniProt Q04759)"}, "PRKD3 (human)": {"biological_target": "PRKD3 (human) (UniProt O94806)"}, "ROCK1 (human)": {"biological_target": "ROCK1 (human) (UniProt Q13464)", "sequence (Q13464 whole entry, looked up)": "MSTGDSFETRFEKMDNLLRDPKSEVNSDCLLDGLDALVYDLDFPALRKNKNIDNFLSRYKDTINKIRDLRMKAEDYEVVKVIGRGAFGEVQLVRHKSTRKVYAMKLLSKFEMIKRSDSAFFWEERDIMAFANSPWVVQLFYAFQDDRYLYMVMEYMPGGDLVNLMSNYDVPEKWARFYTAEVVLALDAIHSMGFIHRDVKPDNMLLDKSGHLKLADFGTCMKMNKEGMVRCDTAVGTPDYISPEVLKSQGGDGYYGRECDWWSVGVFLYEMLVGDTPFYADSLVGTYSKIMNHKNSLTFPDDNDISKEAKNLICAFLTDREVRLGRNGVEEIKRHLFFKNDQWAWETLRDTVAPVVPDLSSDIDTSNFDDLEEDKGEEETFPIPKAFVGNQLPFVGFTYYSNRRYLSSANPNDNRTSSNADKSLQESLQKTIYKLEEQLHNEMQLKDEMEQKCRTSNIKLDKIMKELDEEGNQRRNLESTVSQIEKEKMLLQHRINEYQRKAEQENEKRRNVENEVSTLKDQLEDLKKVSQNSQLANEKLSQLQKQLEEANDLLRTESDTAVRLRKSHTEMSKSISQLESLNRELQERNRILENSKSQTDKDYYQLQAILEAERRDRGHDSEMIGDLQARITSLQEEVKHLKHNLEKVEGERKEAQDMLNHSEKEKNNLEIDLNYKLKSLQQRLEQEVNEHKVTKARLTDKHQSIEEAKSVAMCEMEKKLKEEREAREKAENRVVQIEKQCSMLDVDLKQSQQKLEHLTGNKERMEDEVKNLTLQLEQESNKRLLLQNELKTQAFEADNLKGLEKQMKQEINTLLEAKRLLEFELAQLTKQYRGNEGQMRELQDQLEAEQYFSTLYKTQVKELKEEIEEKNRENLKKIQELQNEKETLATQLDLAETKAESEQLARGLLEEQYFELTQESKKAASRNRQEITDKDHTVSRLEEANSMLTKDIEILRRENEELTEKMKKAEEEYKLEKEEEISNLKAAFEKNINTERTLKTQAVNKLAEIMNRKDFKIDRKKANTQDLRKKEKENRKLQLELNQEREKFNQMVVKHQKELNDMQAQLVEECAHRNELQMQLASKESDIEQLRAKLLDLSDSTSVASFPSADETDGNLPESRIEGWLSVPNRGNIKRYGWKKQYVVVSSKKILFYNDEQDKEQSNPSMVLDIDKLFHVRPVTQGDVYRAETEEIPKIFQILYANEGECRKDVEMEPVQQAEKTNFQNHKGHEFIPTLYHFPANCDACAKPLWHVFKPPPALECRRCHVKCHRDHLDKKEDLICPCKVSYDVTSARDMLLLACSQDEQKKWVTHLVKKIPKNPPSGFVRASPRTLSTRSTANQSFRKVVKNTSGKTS"}, "SRC (human)": {"biological_target": "SRC (human) (UniProt P12931)"}, "SRPK3 (human)": {"biological_target": "SRPK3 (human) (UniProt Q9UPE1)"}, "STK11 (human)": {"biological_target": "STK11 (human) (UniProt Q15831)"}, "TEC (human)": {"biological_target": "TEC (human) (UniProt P42680)"}, "TGFBR2 (human)": {"biological_target": "TGFBR2 (human) (UniProt P37173)"}, "WEE2 (human)": {"biological_target": "WEE2 (human) (UniProt P0C1S8)", "sequence (P0C1S8 whole entry, looked up)": "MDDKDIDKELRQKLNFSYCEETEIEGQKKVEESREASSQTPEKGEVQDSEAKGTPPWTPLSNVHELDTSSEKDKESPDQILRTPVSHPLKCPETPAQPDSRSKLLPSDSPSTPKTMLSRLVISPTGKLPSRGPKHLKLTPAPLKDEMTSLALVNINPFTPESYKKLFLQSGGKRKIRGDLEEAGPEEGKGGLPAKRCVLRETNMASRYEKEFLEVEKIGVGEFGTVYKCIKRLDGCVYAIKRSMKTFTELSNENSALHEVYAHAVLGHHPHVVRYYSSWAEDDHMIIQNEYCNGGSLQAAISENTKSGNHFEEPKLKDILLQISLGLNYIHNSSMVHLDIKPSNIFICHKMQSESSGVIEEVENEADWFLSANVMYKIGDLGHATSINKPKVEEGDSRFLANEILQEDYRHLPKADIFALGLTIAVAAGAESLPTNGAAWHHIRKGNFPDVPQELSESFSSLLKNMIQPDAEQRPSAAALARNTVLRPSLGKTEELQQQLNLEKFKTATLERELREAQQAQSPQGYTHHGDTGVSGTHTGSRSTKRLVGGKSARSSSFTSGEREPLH"}}}
{"compound": "Cc1cc([C@@H](C)Nc2ccccc2C(=O)O)c2nc(N3CCOCC3)cc(=O)n2c1", "values": [{"measurement": "kinase still bound, per cent of control", "setting": "[1]", "value": 100, "unit": "%"}, {"measurement": "kinase still bound, per cent of control", "setting": "ANKK1 (human)", "value": 100, "unit": "%"}, {"measurement": "kinase still bound, per cent of control", "setting": "AURKA (human)", "value": 75, "unit": "%"}, {"measurement": "kinase still bound, per cent of control", "setting": "CAMKK1 (human)", "value": 91, "unit": "%"}, {"measurement": "kinase still bound, per cent of control", "setting": "CDC42BPB (human)", "value": 100, "unit": "%"}, {"measurement": "kinase still bound, per cent of control", "setting": "CHEK1 (human)", "value": 64, "unit": "%"}, {"measurement": "kinase still bound, per cent of control", "setting": "CSNK1E (human)", "value": 92, "unit": "%"}, {"measurement": "kinase still bound, per cent of control", "setting": "[2]", "value": 68, "unit": "%"}, {"measurement": "kinase still bound, per cent of control", "setting": "EPHA7 (human)", "value": 87, "unit": "%"}, {"measurement": "kinase still bound, per cent of control", "setting": "IKBKB (human)", "value": 95, "unit": "%"}, {"measurement": "kinase still bound, per cent of control", "setting": "IKBKE (human)", "value": 100, "unit": "%"}, {"measurement": "kinase still bound, per cent of control", "setting": "IRAK1 (human)", "value": 100, "unit": "%"}, {"measurement": "kinase still bound, per cent of control", "setting": "ITK (human)", "value": 100, "unit": "%"}, {"measurement": "kinase still bound, per cent of control", "setting": "KDR (human)", "value": 100, "unit": "%"}, {"measurement": "kinase still bound, per cent of control", "setting": "MAP2K7 (human)", "value": 100, "unit": "%"}, {"measurement": "kinase still bound, per cent of control", "setting": "MAP3K11 (human)", "value": 95, "unit": "%"}, {"measurement": "kinase still bound, per cent of control", "setting": "MAP3K3 (human)", "value": 77, "unit": "%"}, {"measurement": "kinase still bound, per cent of control", "setting": "MAP3K7 (human)", "value": 100, "unit": "%"}, {"measurement": "kinase still bound, per cent of control", "setting": "MAPK1 (human)", "value": 100, "unit": "%"}, {"measurement": "kinase still bound, per cent of control", "setting": "MAPK13 (human)", "value": 100, "unit": "%"}, {"measurement": "kinase still bound, per cent of control", "setting": "MAPK6 (human)", "value": 78, "unit": "%"}, {"measurement": "kinase still bound, per cent of control", "setting": "MAPKAPK2 (human)", "value": 95, "unit": "%"}, {"measurement": "kinase still bound, per cent of control", "setting": "MKNK1 (human)", "value": 31, "unit": "%"}, {"measurement": "kinase still bound, per cent of control", "setting": "MST1R (human)", "value": 96, "unit": "%"}, {"measurement": "kinase still bound, per cent of control", "setting": "MTOR (human)", "value": 18, "unit": "%"}, {"measurement": "kinase still bound, per cent of control", "setting": "NEK4 (human)", "value": 94, "unit": "%"}, {"measurement": "kinase still bound, per cent of control", "setting": "PAK1 (human)", "value": 97, "unit": "%"}, {"measurement": "kinase still bound, per cent of control", "setting": "PDGFRB (human)", "value": 58, "unit": "%"}, {"measurement": "kinase still bound, per cent of control", "setting": "PIM2 (human)", "value": 83, "unit": "%"}, {"measurement": "kinase still bound, per cent of control", "setting": "PLK4 (human)", "value": 100, "unit": "%"}, {"measurement": "kinase still bound, per cent of control", "setting": "PRKCD (human)", "value": 100, "unit": "%"}, {"measurement": "kinase still bound, per cent of control", "setting": "PRKCH (human)", "value": 95, "unit": "%"}, {"measurement": "kinase still bound, per cent of control", "setting": "PRKCI (human)", "value": 94, "unit": "%"}, {"measurement": "kinase still bound, per cent of control", "setting": "PRKCQ (human)", "value": 100, "unit": "%"}, {"measurement": "kinase still bound, per cent of control", "setting": "PRKD3 (human)", "value": 85, "unit": "%"}, {"measurement": "kinase still bound, per cent of control", "setting": "ROCK1 (human)", "value": 90, "unit": "%"}, {"measurement": "kinase still bound, per cent of control", "setting": "SRC (human)", "value": 100, "unit": "%"}, {"measurement": "kinase still bound, per cent of control", "setting": "SRPK3 (human)", "value": 83, "unit": "%"}, {"measurement": "kinase still bound, per cent of control", "setting": "STK11 (human)", "value": 97, "unit": "%"}, {"measurement": "kinase still bound, per cent of control", "setting": "TEC (human)", "value": 91, "unit": "%"}, {"measurement": "kinase still bound, per cent of control", "setting": "TGFBR2 (human)", "value": 100, "unit": "%"}, {"measurement": "kinase still bound, per cent of control", "setting": "WEE2 (human)", "value": 100, "unit": "%"}]}
